For eight compounds, mutagenic call results are on record in PubChem BioAssay AID1259407 (Chemical Carcinogenesis Research Information System (CCRIS), 2018).

In the data set the test system is CCRIS mutagenicity, Ames/micronucleus/aberration tests. In words: CCRIS mutagenicity studies.
The mark [1] stands for this setting: Test System: AMES SALMONELLA TYPHIMURIUM, Strain/Indicator: TA98, Metabolic Activation: NONE, Method: PREINCUBATION
The mark [2] stands for this setting: Test System: AMES SALMONELLA TYPHIMURIUM, Strain/Indicator: TA100, Metabolic Activation: NONE, Method: PREINCUBATION
The mark [3] stands for this setting: Test System: AMES SALMONELLA TYPHIMURIUM, Strain/Indicator: TA98, Metabolic Activation: NONE, Method: STANDARD PLATE.
The mark [4] stands for this setting: Test System: AMES SALMONELLA TYPHIMURIUM, Strain/Indicator: TA100, Metabolic Activation: NONE, Method: STANDARD PLATE.

The source made the active and inactive calls. How the calls were made is not given here.

Take `CCNc1ccccc1`: the mutagenic call runs as follows: (Test System: AMES SALMONELLA TYPHIMURIUM, Strain/Indicator: TA97, Metabolic Activation: HAMSTER, LIVER, S-9, AROCLOR 1254 (10 OR 30%), Method: PREINCUBATION) “inactive; negative”; (Test System: AMES SALMONELLA TYPHIMURIUM, Strain/Indicator: TA97, Metabolic Activation: NONE, Method: PREINCUBATION) “inactive; negative”; (Test System: AMES SALMONELLA TYPHIMURIUM, Strain/Indicator: TA97, Metabolic Activation: RAT, LIVER, S-9, AROCLOR 1254 (10 OR 30%), Method: PREINCUBATION) “inactive; negative”; (Test System: AMES SALMONELLA TYPHIMURIUM, Strain/Indicator: TA98, Metabolic Activation: HAMSTER, LIVER, S-9, AROCLOR 1254 (10 OR 30%), Method: PREINCUBATION) “inactive; negative”; under setting [1], “inactive; negative”; (Test System: AMES SALMONELLA TYPHIMURIUM, Strain/Indicator: TA98, Metabolic Activation: RAT, LIVER, S-9, AROCLOR 1254 (10 OR 30%), Method: PREINCUBATION) “inactive; negative”. Besides, the mutagenic call by setting is: (Test System: AMES SALMONELLA TYPHIMURIUM, Strain/Indicator: TA100, Metabolic Activation: HAMSTER, LIVER, S-9, AROCLOR 1254 (10 OR 30%), Method: PREINCUBATION) “inactive; negative”; under setting [2], “inactive; negative”; (Test System: AMES SALMONELLA TYPHIMURIUM, Strain/Indicator: TA100, Metabolic Activation: RAT, LIVER, S-9, AROCLOR 1254 (10 OR 30%), Method: PREINCUBATION) “inactive; negative”; (Test System: AMES SALMONELLA TYPHIMURIUM, Strain/Indicator: TA1535, Metabolic Activation: HAMSTER, LIVER, S-9, AROCLOR 1254 (10 OR 30%), Method: PREINCUBATION) “inactive; negative”; (Test System: AMES SALMONELLA TYPHIMURIUM, Strain/Indicator: TA1535, Metabolic Activation: NONE, Method: PREINCUBATION) “inactive; negative”; (Test System: AMES SALMONELLA TYPHIMURIUM, Strain/Indicator: TA1535, Metabolic Activation: RAT, LIVER, S-9, AROCLOR 1254 (10 OR 30%), Method: PREINCUBATION) “inactive; negative”.
Turning to `CC(=O)[O][Sn]([c]1ccccc1)([c]1ccccc1)[c]1ccccc1`, under “End Point: IN VIVO MICRONUCLEUS, Test System: BONE MARROW POLYCHROMATIC ERYTHROCYTES, Species: MOUSE, Strain/Sex: SWISS/MALE, FEMALE, Route: IP 2X IN AQUEOUS SUSPENSION WITHIN 24 HR”, the mutagenic call is “active; positive”.
Take `c1scc2c1-c1cscc1C1NC21` (stereo not drawn): the mutagenic call by setting is: under setting [3], “active; positive”; under setting [4], “active; positive”.
With `CCOc1ccc(N)cc1`, the mutagenic call was “inactive; negative” (Test System: AMES SALMONELLA TYPHIMURIUM, Strain/Indicator: TA98, Metabolic Activation: HAMSTER, LIVER, S-9, AROCLOR 1254 (30%), Method: PREINCUBATION); “inactive; negative” under setting [1]; “inactive; negative” (Test System: AMES SALMONELLA TYPHIMURIUM, Strain/Indicator: TA98, Metabolic Activation: RAT, LIVER, S-9, AROCLOR 1254 (30%), Method: PREINCUBATION); “active; positive” (Test System: AMES SALMONELLA TYPHIMURIUM, Strain/Indicator: TA100, Metabolic Activation: HAMSTER, LIVER, S-9, AROCLOR 1254 (30%), Method: PREINCUBATION); “active; positive” (Test System: AMES SALMONELLA TYPHIMURIUM, Strain/Indicator: TA100, Metabolic Activation: HAMSTER, LIVER, S-9, KANECHLOR 400, Method: PREINCUBATION); “inactive; negative” under setting [2]. In addition, the mutagenic call reads like this: (Test System: AMES SALMONELLA TYPHIMURIUM, Strain/Indicator: TA100, Metabolic Activation: RAT, LIVER, S-9, AROCLOR 1254 (30%), Method: PREINCUBATION) “active; positive”; (Test System: UDS RODENT HEPATOCYTES, Strain/Indicator: THY INCORP (NON-S-PHASE), Metabolic Activation: NONE, Method: AUTORADIOGRAPHY) “inactive; negative”.
As for `C[Si](C)(C)N[Si](C)(C)C`, the mutagenic call by setting is: (Test System: AMES SALMONELLA TYPHIMURIUM, Strain/Indicator: TA98, Metabolic Activation: HAMSTER, LIVER, S-9, AROCLOR 1254 (10%), Method: STANDARD PLATE) “inactive; negative”; under setting [3], “inactive; negative”; (Test System: AMES SALMONELLA TYPHIMURIUM, Strain/Indicator: TA98, Metabolic Activation: RAT, LIVER, S-9, AROCLOR 1254 (10%), Method: STANDARD PLATE) “inactive; negative”; (Test System: AMES SALMONELLA TYPHIMURIUM, Strain/Indicator: TA100, Metabolic Activation: HAMSTER, LIVER, S-9, AROCLOR 1254 (10%), Method: STANDARD PLATE) “inactive; negative”; under setting [4], “inactive; negative”; (Test System: AMES SALMONELLA TYPHIMURIUM, Strain/Indicator: TA100, Metabolic Activation: RAT, LIVER, S-9, AROCLOR 1254 (10%), Method: STANDARD PLATE) “inactive; negative”. The mutagenic call by setting is: (Test System: AMES SALMONELLA TYPHIMURIUM, Strain/Indicator: TA1535, Metabolic Activation: HAMSTER, LIVER, S-9, AROCLOR 1254 (10%), Method: STANDARD PLATE) “inactive; negative”; (Test System: AMES SALMONELLA TYPHIMURIUM, Strain/Indicator: TA1535, Metabolic Activation: NONE, Method: STANDARD PLATE) “inactive; negative”; (Test System: AMES SALMONELLA TYPHIMURIUM, Strain/Indicator: TA1535, Metabolic Activation: RAT, LIVER, S-9, AROCLOR 1254 (10%), Method: STANDARD PLATE) “inactive; negative”; (Test System: AMES SALMONELLA TYPHIMURIUM, Strain/Indicator: TA1537, Metabolic Activation: HAMSTER, LIVER, S-9, AROCLOR 1254 (10%), Method: STANDARD PLATE) “inactive; negative”; (Test System: AMES SALMONELLA TYPHIMURIUM, Strain/Indicator: TA1537, Metabolic Activation: NONE, Method: STANDARD PLATE) “inactive; negative”; (Test System: AMES SALMONELLA TYPHIMURIUM, Strain/Indicator: TA1537, Metabolic Activation: RAT, LIVER, S-9, AROCLOR 1254 (10%), Method: STANDARD PLATE) “inactive; negative”. Further, the mutagenic call by setting is: (Test System: AMES SALMONELLA TYPHIMURIUM, Strain/Indicator: TA1538, Metabolic Activation: HAMSTER, LIVER, S-9, AROCLOR 1254 (10%), Method: STANDARD PLATE) “inactive; negative”; (Test System: AMES SALMONELLA TYPHIMURIUM, Strain/Indicator: TA1538, Metabolic Activation: NONE, Method: STANDARD PLATE) “inactive; negative”; (Test System: AMES SALMONELLA TYPHIMURIUM, Strain/Indicator: TA1538, Metabolic Activation: RAT, LIVER, S-9, AROCLOR 1254 (10%), Method: STANDARD PLATE) “inactive; negative”; (Test System: MOUSE LYMPHOMA, Strain/Indicator: L5178Y (TK+/TK-), Metabolic Activation: NONE, Method: SUSPENSION/PLATE) “inactive; negative. reevaluation of results: inconclusive”.
For `Nc1ncnc2c1ncn2C(c1ccccc1)c1ccccc1`, the mutagenic call is, setting by setting: (Test System: AMES SALMONELLA TYPHIMURIUM, Strain/Indicator: TA97, Metabolic Activation: NONE, Method: STANDARD PLATE) “inactive; negative”; (Test System: AMES SALMONELLA TYPHIMURIUM, Strain/Indicator: TA97, Metabolic Activation: RAT, LIVER, S-9, AROCLOR 1254, Method: STANDARD PLATE) “inactive; negative”; under setting [3], “inactive; negative”; (Test System: AMES SALMONELLA TYPHIMURIUM, Strain/Indicator: TA98, Metabolic Activation: RAT, LIVER, S-9, AROCLOR 1254, Method: STANDARD PLATE) “active; positive”; under setting [4], “inactive; negative”; (Test System: AMES SALMONELLA TYPHIMURIUM, Strain/Indicator: TA100, Metabolic Activation: RAT, LIVER, S-9, AROCLOR 1254, Method: STANDARD PLATE) “inactive; negative”.
For `O=P(OCCC(Br)CBr)(OCCC(Br)CBr)OCCC(Br)CBr` (stereo not drawn), the mutagenic call by setting is: (Test System: AMES SALMONELLA TYPHIMURIUM, Strain/Indicator: TA100, Metabolic Activation: RAT, LIVER, MICROSOMES, PHENOBARBITAL, Method: PREINCUBATION) “inactive; negative”; (Test System: AMES SALMONELLA TYPHIMURIUM, Strain/Indicator: TA100, Metabolic Activation: RAT, LIVER, MICROSOMES, Method: PREINCUBATION) “inactive; negative”.
`COc1ccc2c(c1)C(=O)c1nccc3cc(OC)c(OC)c-2c13`: the mutagenic call (Test System: AMES SALMONELLA TYPHIMURIUM, Strain/Indicator: TA100, Metabolic Activation: RAT, LIVER, S-9, PHENOBARBITAL AND BETA-NAPHTHOFLAVONE, Method: PREINCUBATION) was “active; positive”.
